Assays:
CDC42 = assay: Rho family GTPase activity assay (G-LISA); type: cell-based, human; settings: Du145 cells, Lenti-141 MOI 10, 48 h
Procedure: (§1) Du145 cells transfected with NC or miR-141 oligos at the two doses and time intervals indicated were used in Western blotting. Indicated below are relative expression levels (normalized to respective GAPDH and compared to NC) of each protein determined by densitometric scanning of the individual bands. […] Bars, mean±SD. *P<0.05; **P<0.01. […] Du145 cells were co-transfected with NC or miR-141 oligos (30 nM) in combination with pcDNA3.1 (control) vector or pcDNA-RAC1 or pcDNA-CDC42 expression vector. After 48 h, cells were harvested for invasion assays. […] Du145 cells were infected with Lenti-141 or control lentivirus (MOI 10, 48 h) and then harvested to measure the Rho GTPase activities. Bars, mean±SD. *P<0.05. […] Du145 cells were transfected with the antisense oligos to NC or miR-141 (anti-141; 30 nM) and then used in invasion assays (FIG. 5E). In FIG. 5F and FIG. 5G Du145 cells were transfected with 10 nM of scramble siRNA control (siCon) or siRNAs targeting RAC1 (FIG. 5F) or CDC42 (FIG. 5G), either alone or in combination of anti-141 (30 nM). 48 h later, cells were harvested for invasion assays. Bars, mean±SD. *P<0.05; **P<0.01.
(§2) The activity of Rho family of small GTPases including RhoA, RAC1 and CDC42 were detected using G-LISA small G-protein activation assays per the manufacturer's instructions (Cytoskeleton, Inc., Denver, Colo.; catalog# BK135).

RhoA = assay: Rho family GTPase activity assay (G-LISA); type: cell-based, human; settings: Du145 cells, Lenti-141 MOI 10, 48 h
Procedure: as §1, §2

RAC1 = assay: Rho family GTPase activity assay (G-LISA); type: cell-based, human; settings: Du145 cells, Lenti-141 MOI 10, 48 h
Procedure: as §1, §2

CD44 = CD44 mRNA and protein levels in prostate cancer cells; type: cell-based, human; settings: bulk Du145 and PC3 cells or CD44+ Du145 cells
Procedure: (§3) FIGS. 3A-3J show partial suppression of epithelial to mesenchymal transition by miR-141 and CD44 as a direct target of miR-141. FIGS. 3A-3B show qPCR analysis of epithelial to mesenchymal transition markers in bulk (FIG. 3A) or CD44^+ (FIG. 3B) Du145 cells transfected with the miR-141 oligos (30 nM; 48 h). Results were presented as the relative expression levels over the cells transfected with the NC oligos. […] GAPDH was used as control and the relative protein levels after normalizing to GAPDH and NC controls were indicated below each lane. […] Shown below is the actual sequence in the region with the mutated miR-141 binding sequence indicated in grey (below). […] Shown are representative images. […] Du145 cells were co-transfected with NC or miR-141 oligos (30 nM) together with pBabe empty vector or pBabe-CD44 vector. After 48 h, cells were harvested for invasion assays. Bars, mean±SD. *, P<0.05; **, P<0.01.
Total RNA was extracted using microRNA isolation kit (Life Technologies) according to the manufacturer's instructions. microRNA qPCRs were performed using TaqMan microRNA assays (Life Technologies). qPCR data for microRNAs were normalized to RNU48 whereas qPCR data for mRNAs were normalized to GAPDH.

[1] = test system: E-Cadherin and ZEB-1 in PC3 and Du145 cells; assay: Western blotting of E-Cadherin and ZEB-1; type: cell-based, human; settings: bulk Du145 and PC3 cells; 30 or 60 nM, 48 h
Procedure: as §3

human EZH2 3'-UTR = assay: EZH2 3'-UTR luciferase reporter assay; type: cell-based; settings: Du145 cells
Procedure: FIG. 6A: Putative binding site of miR-141 in EZH2 3′-UTR. […] FIG. 6C is a qPCR analysis of EZH2 mRNA levels in CD44^+ PCa cells. Bars, mean±SD. *P<0.05; **P<0.01. […] Bars, mean±SD. **P<0.01. […] Western blotting was performed in PC3 and Du145 cells transfected with NC (60 nM) or miR-141 (30 or 60 nM) oligos (72 h). Relative protein levels were measured by densitometry and normalized to GAPDH levels (indicated below). […] Du145 cells plated one day before were treated with 1, 2, and 5 μM of DZNep for 96 h and then cells were harvested for invasion assays. **P<0.01. Inset, WB showing reduced EZH2 proteins by DZNep. […] Du145 cells were transfected with 10 nM scramble siRNA (siCon) or EZH2-targeting siRNAs (siEZH2) or siEZH2 plus anti-miR-141 (30 nM). 48 h later, cells were harvested for invasion assays. Bars, mean±SD. **P<0.01. […]
The human CD44 3′-UTR was amplified from Du145 genomic DNA using primers 5′-[…]-3′ (SEQ ID NO: 2) and 5′-[…]-3′ (SEQ ID NO: 3), as previously described (13). […] The luciferase activities were detected using Duo-luciferase reporter assay system (Promega). Human RAC1, CDC42, CDC42EP3, and ARPC5 3′-UTR luciferase reporter constructs were obtained from SwitchGear Genomics (Menlo Park, Calif.) and luciferase activities were measured per the manufacturer's instructions using LightSwitch luciferase assay kit.

## miR-141: miR-141 mirVana mimics (Life Technologies); microRNA-141 oligonucleotide may have SEQ ID NO: 1; in some experiments over-expressed by lentiviral vectors (UAACACUGUCUGGUAAAGAUGG; listed as RNA, further chemistry not given here) [miR-141 mirVana mimics (Life Technologies); in some experiments over-expressed by lentiviral vectors]
CDC42
  GTPase activity of CDC42: suppressed
RhoA
  GTPase activity of RhoA: not
RAC1
  GTPase activity of RAC1: suppressed
CD44
  CD44 mRNA level: significantly reduced
  CD44 protein level: significantly reduced
[1]
  E-cadherin (CDH1) protein level: increased
  ZEB1 protein level: reduced
Human EZH2 3'-UTR
  luciferase activity, WT EZH2 3'-UTR: suppressed
  luciferase activity, mutated EZH2 3'-UTR: not
